Measured values as given in US20220387369A1, “Prooxidative chain-transfer agents for use in the treatment of malignant tumour or infectious diseases” (Universitätsmedizin der Johannes Gutenberg-Universität Mainz, priority 2019, published 2022).

Key:
C. elegans [1] = assay: 8-Isoprostane in homogenates of treated nematodes; format: in vivo, Caenorhabditis elegans; details: 0.1 mM or 0.5 mM, FIG. 4 (b)
Experimental: 8-Isoprostanes. Synchronized, 4-day-old adult worms distributed in cell culture flasks were administered with the indicated concentration of n-dodecyl thiol (12-SH) dissolved in ethanol (final concentration: 1%) and cultivated for 6 h or 48 has indicated. The worms were collected by centrifugation at 1200 g, washed twice with S-Basal medium, and once with DMEM medium containing 100 μM butylated hydroxytoluene (BHT). The worms were then homogenized in DMEM/BHT by sonication (3×20 s at 30 kHz on ice). Equal amounts of protein of the resulting homogenate (as per bicinchoninic acid assay from Pierce, Rockford, Ill., USA) were probed for the presence of 8-isoprostane by a commercial enzyme immunoassay (Cayman Chemicals, Ann Arbor, Mich., USA) following the manufacturer's instructions.

[2] = tested on: Primary human fibroblasts; assay: Protein polyubiquitination in diploid human fibroblasts (Western blot); format: cell-based; details: 500 μM, medium with 10% fetal calf serum, time course, FIG. 3C (b)
Experimental: (§1) (FIG. 3A) Normal human diploid fibroblasts were cultivated under standard conditions stimulating cell division, i.e. with 10% serum in the medium. Specifically, the cells were grown in high-glucose DMEM (Dulbecco's Modified Eagle's Medium) supplemented with 10% heat-inactivated FCS (fetal calf serum), 1× non-essential amino acid (NEAA) supplement, 1 mM pyruvate, 100 mg/L streptomycin and 100 U/mL penicillin. For cultivation, the cells were maintained at 37° C. in a humidified atmosphere containing 5% CO2. The cells were generally passaged on reaching approximately 90% confluence and were seeded, after counting of the PDLs (population doublings), in new dishes at a density of 10^6 cells per dish in 100 mm dishes, or at a density of 10^4 cells per well in 96-well plates. Cells were used for experiments at PDL 25-30. All cell culture reagents were from Invitrogen, Carlsbad, Calif., USA.
Protein polyubiquitination. Cells cultivated in 100 mm dishes for 24 h were administered with 500 μM n-dodecyl thiol (12-SH) for the indicated time before harvesting of the cells in lysis buffer (50 mM Tris-HCl, pH 7.4, 10% sucrose, 1 mM EDTA, 1 mM EGTA, 1 mM Na3VO4, 1 mM NaF, 1× protease inhibitor cocktail from Sigma-Aldrich, St. Louis, Mo., USA) followed by brief sonication and denaturation at 95° C. for 2 min. […] Densitometric quantification was performed using automated image analysis software.

Drosophila melanogaster = assay: Ultrastructural effects in fruit flies in vivo (electron microscopy); details: 1 mM in the feed, electron micrographs
Experimental: Male Drosophila melanogaster (strain Oregon-R) were maintained at 25° C. in plastic vials covered with air-permeable lids and received standard food (50 g/L refined household sugar, 50 g/L baker's yeast, and 20 g/L agar powder). The medium was boiled under stirring, adding the following supplements at approximately 70° C.: 3 g/L methylparabene (dissolved in ethanol, final concentration: 0.15%), 3 mL/L propionic acid and the appropriate amount of n-dodecyl thiol (12-SH) dissolved in ethanol (final concentration: 0.1%). Synchronized male flies were transferred into new vials and scored for survival every other day. Treatment started on day 2 of adulthood. Electron microscopy. Flies harvested after 50 days of treatment were cryofixed by plunge freezing, cut into head, thorax and abdomen before chemical fixation for 90 min with 3% glutaraldehyde and 3% formaldehyde in PBS. The tissues were washed, fixed with 2% OsO4, washed again, dehydrated with rising concentrations of ethanol, transitionally stabilized with propylene oxide and embedded into epoxy resin essentially as described (Bozzola and Russel, Electron Microscopy: Jones and Bartlett Publishers, Inc., Sudbury, M A, 1999). The polymerized blocks were mounted, trimmed, and sectioned in an ultramicrotome before transfer onto electron microscopy grids. Images were acquired under standard conditions in a Tecnai Transmission Electron Microscope (FEI Company, Hillsboro, Oreg., USA).

C. elegans [3] = assay: Toxicity (survival) in nematodes in vivo; design: species or system Caenorhabditis elegans; details: 0.5 mM in minimum diet with varying amounts of coliform bacteria, oral, FIG. 4 (a)
Experimental: Caenorhabditis elegans N2 Bristol strain animals were expanded and cultivated at 20° C. on nematode growth medium (NGM) plates in the presence of Escherichia coli strain HB101 as food source following standard protocols (Mocko et al., Neurobiol Dis 40:120-129, 2010). For the toxicity experiments, synchronized adult worms aged 2 days were maintained in liquid culture medium (S-Basal medium supplemented with 5 mg/L cholesterol, 100 mg/L streptomycin, 100 mg/L fluorodeoxyuridine (FUDR)) to which varying amounts of Escherichia coli were added (measured as optical density (OD) at 600 nm wavelength) as described (Mair et al., PLoS One 4:e4535, 2009). Worms distributed in 48-well plates were administered with 500 μM n-dodecyl thiol (12-SH) dissolved in ethanol (final concentration: 1%) and analyzed, after the indicated time, for survival by visual inspection and mechanical stimulation (nose-touch assay) as detailed (Mocko et al., Neurobiol Dis 40:120-129, 2010).

[4] = tested on: Native lipid membranes from rat brain; assay: Lipid peroxidation (malondialdehyde/TBARS) in native rat brain membranes; format: biochemical
Experimental: Native biological membranes from adult rat brain were prepared by differential centrifugation as described (Moosmann and Behl, Proc Nati Acad Sci USA 96:8867-8872, 1999). Samples containing 0.5 mg/ml total protein (as per bicinchoninic acid assay from Pierce, Rockford, Ill., USA) were solubilized by brief sonication in PBS (phosphate-buffered saline) and administered with the indicated concentrations of n-dodecyl thiol (12-SH; from Sigma-Aldrich, St. Louis, Mo., USA) dissolved in ethanol (final concentration: 0.1%). Subsequently, 10 μM Fe^2+/200 μM ascorbate were added as radical-initiating mix; controls received vehicle (water). After the indicated time, the reaction was stopped by adding 2.5 volumes of 5% trichloroacetic acid in 1 M acetic acid, followed by centrifugation (10,000 g for 10 min). Subsequently, thiobarbituric acid-reactive substances (TBARS) as marker of lipid peroxidation were quantified fluorimetrically as detailed before (Hajieva et al., J Neurochem 110:118-132, 2009).

[5] = tested on: Primary human fibroblasts; assay: 8-Isoprostane release from diploid human fibroblasts; format: cell-based; details: 100 μM, medium with 10% fetal calf serum, time course, FIG. 3C (a)
Experimental: as §1
(FIG. 3C) 8-Isoprostanes. Cells cultivated in 96-well plates for 24 h were administered with 100 μM n-dodecyl thiol (12-SH) for the indicated time before removing the cell culture supernatant for 8-isoprostane analysis. 8-Isoprostane analysis was achieved by a commercial enzyme immunoassay (Cayman Chemicals, Ann Arbor, Mich., USA), which was conducted as detailed in the manufacturers instructions.

HT22 cells = assay: Cytotoxic activity in cultivated HT22 cells (MTT), normoxic and hypoxic; format: cell-based, mouse; details: 1 day or 3 days, 20% O2 vs 1% O2, FIG. 2B
Experimental: (FIG. 2A) HT22 are a widely used, immortalized neuronal cell line that has been generated by transforming mouse neuronal tissue with the oncogenic SV40 T-antigen (Morimoto and Koshland, Neuron 5:875-880, 1990). HT22 cells were cultivated in high-glucose DMEM (Dulbecco's Modified Eagle's Medium) supplemented with 10% heat-inactivated FCS (fetal calf serum), 1 mM pyruvate, 100 mg/L streptomycin and 100 U/mL penicillin. For routine culture, cells were grown in 100 mm dishes at 37° C. in a humidified atmosphere containing 5% CO2. They were passaged three times per week on reaching approximately 90% confluence and splitted 1:10. All cell culture reagents were from Invitrogen, Carlsbad, Calif., USA.
For cell survival experiments, HT22 cells were seeded into 96-well plates at a density of ˜5000 cells per well in 0.1 mL medium. After 24 h cultivation, the cells were administered with the indicated concentrations of the tested compounds (n-octyl thiol (8-SH) or n-dodecyl thiol (12-SH)) dissolved in ethanol (final concentration: 1%). After 1 day or 3 days of incubation as indicated, cell survival was analyzed by colorimetric MTT reduction tests (MTT is 3-(4,5-dimethylthiazol-2-yl-)-2,5 diphenyltetrazolium bromide) which were performed exactly as described (Hajieva et al., J Neurochem 110:118-132, 2009). […]

Q: How did the “concentration of lipid peroxidation marker 8-isoprostane in worm homogenates” value (C. elegans [1]) turn out when `CCCCCCCCCCCCS` [n-dodecylthiol] was run?
A: increased to a constant maximum after only 6 h

Q: What about the “amount of polyubiquitinated proteins in the cell (marker of protein damage)” value [2] of the same compound?
A: increased significantly within a few hours

Q: And the myofibrillar structure (Drosophila melanogaster; FIG. 5A)?
A: intact

Q: And the “ultrastructural effect on muscle mitochondria” value (Drosophila melanogaster; FIG. 5A)?
A: intramitochondrial, spiral multilamellar lesions

Q: What about the “ultrastructural lesions in the nervous system (a, b) and photoreceptor cells (c)” value (Drosophila melanogaster; FIG. 5B) of the same compound?
A: spiral multilamellar lesions of mitochondrial origin

Q: What about the “other damage phenotype, nervous system (b)” value (Drosophila melanogaster; FIG. 5B (b)) of the same compound?
A: vacuolization and electron-dense aggregation

Q: What about the “other damage phenotype, photoreceptor cells (c)” value (Drosophila melanogaster; FIG. 5B (c)) of the same compound?
A: bright lipofuscin accumulation

Q: And the “worms killed / toxicity in vivo” value (C. elegans [3])?
A: led to death after a few days

Q: And the “extent of lipid peroxidation (as malondialdehyde)” value ([4]; absence of any radical initiation ("dead membranes"), FIG. 1 (a))?
A: absence of any effect

Q: And the “extent of lipid peroxidation (as malondialdehyde)” value ([4]; low level of free radical initiator (iron/ascorbate) added, FIG. 1 (b))?
A: massively amplified

Q: What about the “concentration of released lipid peroxidation marker 8-isoprostane” value [5] of the same compound?
A: increased significantly within a few hours

Q: What about the “cytotoxic effectiveness under hypoxic versus normal oxygen conditions” value (HT22 cells) of the same compound?
A: not compromised by hypoxic conditions
